Measured values from patent US4992534A, “3'-O-,5'-O-derivatives of 2'-deoxy-5-fluorouridine” (Otsuka Pharmaceutical Co., Ltd., priority 1987, dated 1991).

System: Sarcoma-180
Experiment: Antitumor test against subcutaneously transplanted Sarcoma-180 in ICR mice (Pharmacological Test 1)
Assay type: in vivo
Conditions: Sarcoma-180 s.c. in ICR mice, tail vein once a day for 7 consecutive days from 24 h after transplantation, tumor weight on 10th day
Experimental: Sarcoma-180 subcultured in ascites of ICR mice was diluted with a physiological saline and subcutaneously transplanted into the backs of ICR mice in an amount of 2 ×10^7 cells each. Twenty-four hours after the transplantation, a test compound dissolved in sterilized physiological saline was administered to the tail vein of each of the mice once a day for 7 consecutive days.
The solid tumor was isolated from under the dorsal skin of mice on the 10th day after the transplantation to measure the weight of the tumor There was determined the ratio (T/C) of the weight of tumor (T) of the test compound group to the weight of tumor (C) of the control group.

Compound	50% tumor inhibition dose (ED50), dose at which T/C of tumor weight is 0.5 [mg/kg]	ED50 (Mus musculus, sc, 240 h, read-out: 50% tumor inhibition dose (ED50), dose at which T/C of tumor weight is 0.5) [mg/kg]
3'-O-(5-bromo-2-thenyl)-2'-deoxy-5-fluoro-5'-O- glycyluridine hydrochloride [Test Compound 2]	7	–
Cl.NCC(=O)OC[C@H]1O[C@@H](n2cc(F)c(=O)[nH]c2=O)C[C@@H]1OCc1ccc(Cl)s1 [Test Compound 1, 3'-O-(5-chloro-2-thenyl)-2'-deoxy-5-fluoro-5'-O-glycyluridine hydrochloride]	–	5
